Data published in patent US11345762B2, “Method for preparing liquid medium composition, and preparation device and kit therefor” (NISSAN CHEMICAL INDUSTRIES, LTD., priority 2015, dated 2022).

Tested on: Human pancreatic cancer cell line Panc02,03
Experiment: Proliferation action on Panc02,03 cell stimulated by each growth factor (ATP, CellTiter-Glo)
Assay type: cell-based

human FGF-2: growth factor, manufactured by PEPROTECH
% control of RLU value (ATP measurement, luminescence intensity) (Panc02,03, 10 ng/mL, medium composition of Example 13, on day 6 (head)): 107 % Control
% control of RLU value (ATP measurement, luminescence intensity) (Panc02,03, 10 ng/mL, monolayer culture group, culture conditions on day 6 (head)): 108 % Control
% control of RLU value (ATP measurement, luminescence intensity) (Panc02,03, 10 ng/mL, negative control group (medium free of deacylated gellan gum, low adhesion plate), on day 6 (head)): 118 % Control
% control of RLU value (ATP measurement, luminescence intensity) (Panc02,03, 100 ng/mL, medium composition of Example 13, on day 6 (head)): 100 % Control
% control of RLU value (ATP measurement, luminescence intensity) (Panc02,03, 100 ng/mL, monolayer culture group, culture conditions on day 6 (head)): 102 % Control
% control of RLU value (ATP measurement, luminescence intensity) (Panc02,03, 100 ng/mL, negative control group (medium free of deacylated gellan gum, low adhesion plate), on day 6 (head)): 99 % Control

human EGF: growth factor, manufactured by PEPROTECH
% control of RLU value (ATP measurement, luminescence intensity) (Panc02,03, 3 ng/mL, medium composition of Example 13, on day 6 (head)): 108 % Control
% control of RLU value (ATP measurement, luminescence intensity) (Panc02,03, 3 ng/mL, monolayer culture group, culture conditions on day 6 (head)): 105 % Control
% control of RLU value (ATP measurement, luminescence intensity) (Panc02,03, 3 ng/mL, negative control group (medium free of deacylated gellan gum, low adhesion plate), on day 6 (head)): 117 % Control
% control of RLU value (ATP measurement, luminescence intensity) (Panc02,03, 30 ng/mL, medium composition of Example 13, on day 6 (head)): 187 % Control
% control of RLU value (ATP measurement, luminescence intensity) (Panc02,03, 30 ng/mL, monolayer culture group, culture conditions on day 6 (head)): 97 % Control
% control of RLU value (ATP measurement, luminescence intensity) (Panc02,03, 30 ng/mL, negative control group (medium free of deacylated gellan gum, low adhesion plate), on day 6 (head)): 136 % Control
efficacy in Panc02,03 cell proliferation test using the medium composition by the production method of the present invention (in words) (compared to a monolayer culture method and negative control group): strongly shown
